# “Also recorded” adds a separate entry of the source.
# Experiments:
# [1] = biological target: T1, MrgX2 (human MRGPRX2) (Homo sapiens, UniProt Q96LB1); assay: Calcium imaging of cells transfected with the GPCR (Table 1); format: cell-based; settings: for inhibition of SP-induced activation of human MRGPRX2: FIG. 6a: SP 500 nM, inhibitors 1 μM, FK888 10 μM
# T1 construct: expressed in transfected cells; host or cells: HeLa cells, pcDNA3.1(-)
# T1 sequence (Q96LB1 1-330): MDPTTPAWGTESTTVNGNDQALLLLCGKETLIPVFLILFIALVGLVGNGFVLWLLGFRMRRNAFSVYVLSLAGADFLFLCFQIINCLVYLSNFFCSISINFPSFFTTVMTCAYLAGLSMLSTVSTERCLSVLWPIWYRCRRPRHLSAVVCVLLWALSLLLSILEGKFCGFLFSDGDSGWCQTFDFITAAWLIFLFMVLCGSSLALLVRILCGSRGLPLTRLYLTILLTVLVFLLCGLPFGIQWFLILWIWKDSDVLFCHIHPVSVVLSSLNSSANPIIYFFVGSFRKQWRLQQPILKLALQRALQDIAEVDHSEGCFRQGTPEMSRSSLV
# Experimental: human MRGPRX2 was isolated by PCR from human genomic DNA using the forward and reverse primers, […] (SEQ. ID. NO: 3) and […] (SEQ. ID. NO: 4), and cloned into pcDNA3.1(−). The mouse MrgprA1 cDNA expression clone was purchased from ORIGENE Technologies. The mouse MrgprB2 coding sequences were PCR-amplified from mouse genomic DNA using the primer pair, […] (SEQ. ID. NO: 5) and […] (SEQ. ID. NO: 6), and cloned into pcDNA3.1 (−).
# (§1) 10 μg of expression vector (human MRGPRX2, mouse MrgprA1 or NK1) and 10 μl of LIPOFECTAMINE 2000 transfection reagent were diluted into 0.5 ml of DMEM and separately left at room temperature (RT) for 5 min. They were then mixed and incubated at RT for 20 minutes prior to being added to HeLa cells. HeLa cells were grown to confluence, trypsinized and 1×10^6 cells were pelleted in a 15 ml tube by centrifugation at 1000 rpm for 5 minutes. The DMEM-LIPOFECTAMINE 2000-DNA mixture (1 ml) was then added to the cell pellet, suspended and incubated at RT for 5 minutes. 2 ml of complete DMEM with 10% FBS without antibiotics were added to the tube, mixed by inverting the tube, plated into a 96-well glass bottom plate at 50,000 cells/well, and placed in a 37° C. CO2 incubator for 3 hours. HeLa cells transfected with salmon sperm DNA were plated as a control. The medium was changed after 3 hours and left in the incubator. 24 hours after transfection, the medium in the wells was removed and 100 μl of complete DMEM containing 2 μM of FURA-2 were added to each well and left at room temperature in the dark for 1 hr. Following loading with FURA-2, the medium was removed, washed with PBS and replaced with 90 μl of HEPES-buffered saline (20 mM HEPES, 115 mM NaCl, 5.4 mM KCl, 2 mM CaCl2, 0.8 mM MgCl2, 13.8 mM glucose, pH 7.4).
# (§2) Calcium imaging was performed immediately after loading cells with Fura-2, using a ZEISS Axiovert 200M microscope platform equipped with a flipping filter wheel for ratiometric imaging. Axiovision software, version 4.6 was used for calcium image analysis of the cells excited at 340 nm and 380 nm. Agonists were added at 15 seconds after the start of the excitation procedure. Antagonists were added five minutes before imaging with the agonists. Images were taken every 5 seconds, including at zero time, during a 90 second period or longer if required. The software later analyzed all images taken during each excitation period. Ratiometric changes were measured in 10-20 cells in each individual experiment. An average of the fluorescence of the cells in each image was calculated and plotted against time in seconds.
# Each of the concentration dependent readings was performed in triplicate. Maximum intensities at each of the dilutions were calculated and plotted against concentration using GraphPad Prism software. Error bars represent SEM.
# [2] = biological target: T2, MrgX1 (human MRGPRX1) (Homo sapiens, UniProt Q96LB2); assay: as above; format: cell-based
# T2 construct: expressed in transfected cells; host or cells: HeLa cells, pcDNA3.1(-)
# T2 sequence (Q96LB2 whole entry): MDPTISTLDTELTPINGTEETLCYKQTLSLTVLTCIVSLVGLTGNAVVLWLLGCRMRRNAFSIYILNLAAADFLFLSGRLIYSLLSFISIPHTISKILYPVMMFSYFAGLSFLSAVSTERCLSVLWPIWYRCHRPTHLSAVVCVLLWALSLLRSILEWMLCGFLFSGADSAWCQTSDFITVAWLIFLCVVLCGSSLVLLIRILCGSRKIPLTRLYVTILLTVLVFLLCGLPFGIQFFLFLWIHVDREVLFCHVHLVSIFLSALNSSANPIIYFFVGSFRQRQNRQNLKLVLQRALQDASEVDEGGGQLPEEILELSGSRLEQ
# Experimental: Human NK1 cDNA was obtained from LIFE Technologies, PCR cloned with Xho I-Hind III ends and cloned into pcDNA3.1(−). Mouse NK2 and NK3 expression-ready vectors were obtained from […] (Piscataway, N.J.). All other Mrgprs (human MRGPRX1, human MRGPRX2, human MRGPRX3, human MRGPRX4, mouse MrgprA2a, mouse MrgprA2b, mouse MrgprA3, mouse MrgprA4, mouse MrgprA9, mouse MrgprA10, mouse MrgprB4 and mouse MrgprB5) were cloned by PCR from genomic DNAs and inserted into pcDNA3.1 (−).
# as §1, with “hr.” for “hr. Following loading with FURA-2, the medium was removed, washed with PBS and replaced with 90 μl of HEPES-buffered saline (20 mM HEPES, 115 mM NaCl, 5.4 mM KCl, 2 mM CaCl2, 0.8 mM MgCl2, 13.8 mM glucose, pH 7.4).”
# as §2
compound,measurement,setting,value
FC(F)(F)c1cc(CO[C@H]2CCCN[C@H]2c2ccccc2)cc(C(F)(F)F)c1 [L-733060],inhibition of SP-induced activation of human MRGPRX2,[1],did not impact
C[C@@H](O[C@H]1OCCN(Cc2n[nH]c(=O)[nH]2)[C@H]1c1ccc(F)cc1)c1cc(C(F)(F)F)cc(C(F)(F)F)c1 [aprepitant],inhibition of SP-induced activation of human MRGPRX2,[1],did not impact
Boc-Gln-D-Trp(Formyl)-Phe benzyl ester trifluoroacetate [QWF],inhibition of hMRGPRX2 activation by compound 48/80,[1],inhibits
same,inhibition of SP-induced activation of human MRGPRX2,[1],excellent inhibitor; also recorded: potent antagonist; also recorded: inhibits
same,inhibition of human MRGPRX2 activation by atracurium and ciprofloxacin,[1]; FIG. 8a,antagonized; also recorded: inhibits
same,inhibition of human MRGPRX1 activation by chloroquine (CQ),"[2]; FIG. 7c: CQ 100 μM, QWF 100 μM",does not affect; also recorded: does not inhibit
SLIGRL: tethered hexapeptide ligand of mouse PAR2 (SEQ ID NO: 7),activation of human MRGPRX2 by the substance (in words),"[1]; NPFF 50 μM, capsaicin 3 μM, SP at nanomolar concentrations",activates
"SP: inflammatory undecapeptide neuropeptide of the tachykinin family, synthesized by GenScript",activation of human MRGPRX1 by the substance (in words),"[2]; SP 10 μM (FIG. 9), chloroquine 100 μM (FIG. 7c)",does not activate

# Source: patent US10426815B2, “Prevention and treatment of itch with an MRGPR antagonist” (THE GENERAL HOSPITAL CORPORATION, priority 2015, dated 2019)
